Laboratory results reported in patent publication US20030171293A1, “Neuropeptide receptor and uses thereof” (Pfizer Inc., priority 2002, published 2003).
Where a SMILES comes first, the peptide text is derived from it. Bridges are numbered along the chain shown (N, C = ends). [ ]: non-standard residue; d: D form. dTrp(2-Me) = Cc1[nH]c2ccccc2c1C[C@@H](N)C(=O)O; d2Nal = N[C@H](Cc1ccc2ccccc2c1)C(=O)O; Nle = CCCC[C@H](N)C(=O)O

How the values were obtained:
[1] = target: T1, receptor MRGX2 (Homo sapiens, UniProt Q96LB1); assay: Functional assay measuring intracellular calcium mobilisation (FLIPR); assay type: cell-based; conditions: for EC50: Preliminary EC50 data for receptor MRGX2, transiently transfected cells, Fluo3 calcium response; for response of MRGX2 receptor: at a concentration of 1 μM
T1 construct: expressed in transfected cells; host or cells: host line such as HEK293 or CHO-K1, stably expressing Galpha15/Gqi-5
T1 sequence (Q96LB1 1-330): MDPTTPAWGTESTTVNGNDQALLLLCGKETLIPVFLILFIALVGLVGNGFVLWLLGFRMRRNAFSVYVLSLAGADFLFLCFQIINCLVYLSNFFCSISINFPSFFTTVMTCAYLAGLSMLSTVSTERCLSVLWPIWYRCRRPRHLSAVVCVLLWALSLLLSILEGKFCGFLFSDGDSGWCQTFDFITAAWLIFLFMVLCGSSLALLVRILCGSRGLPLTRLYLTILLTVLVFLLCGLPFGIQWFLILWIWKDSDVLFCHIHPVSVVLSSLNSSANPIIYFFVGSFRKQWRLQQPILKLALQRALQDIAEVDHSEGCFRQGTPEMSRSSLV
Experimental: 5×10^6 cells of a suitable host cell line, chosen to express a low number of endogenous receptors (e.g. HEK293 or CHO-K1) and engineered to stably express Gα15/Gqi-5, were transiently transfected with 7.5 μg of cDNA encoding receptor MRGX2 in a suitable mammalian cell expression vector, or vector alone, using Lipofectamine Plus® reagent (Gibco BRL) as per the manufacturer's protocol. If the cells were intended for a ligand binding assay or microphysiometry, they were incubated for 24-72 hours post transfection, and then harvested. If a microtitre plate-based assay was intended, the cells were detached from the flask using Trypsin/EDTA solution (LTI) 24 hours post transfection, and seeded into e.g. a black sided, Poly-D-lysine-treated, 96-well plate (Becton Dickinson) at 5×10^4 cells/well density. The plates were left overnight to allow the cells to adhere to the bottom of the wells.
Fluorescence Imaging Plate Reader (FLIPR®) technology was employed as a means to detect activation of receptor MRGX2 by various potential GPCR agonists.
24 hrs post-transfection, the cells were detached from the flask using Trypsin/EDTA solution (LTI) and seeded into a black sided, Poly-D-lysine-treated, 96-well plate (Becton Dickinson) at 5×10^4 cells/well density. The plates were left overnight to allow the cells to adhere to the bottom of the wells. The medium was removed from the cells and replaced with 100 μl warm (37° C.) dye loading solution (50 μg Fluo3 (Molecular Probes) in 20 μl DMSO+20% pluronic acid in DMSO, added to 11 ml Dulbecco's Modified Eagles Medium containing 1× Probenecid (100× Probenecid—0.71 g Probenecid was dissolved in 5 ml 1 M NaOH and 5 ml Dulbeccos' Phosphate Buffered Saline (PBS), per plate; Probenecid (Molecular Probes) inhibits activity of the anion transport protein, thus improving dye loading). The plates were then incubated for 1 hr at 37° C. Plates were subsequently washed with 250 μl of wash buffer per well (5 ml 100× Probenecid stock+495 ml PBS, pH 7.4) 4 times. The plates were returned to the 37° C./5%CO2 incubator for 30 mins prior to processing within the FLIPR® instrument. The FLIPR® processing involved reading the fluorescence for all samples for 2 minutes; during this time the fluorescence baseline was determined for 10 seconds. The desired amount of compounds (i.e. potential GPCR agonists) was then automatically transferred to the wells and the fluorescence was continuously monitored for the remainder of the time. All compounds were diluted in wash buffer.

[2] = test system: guinea pig ileum; conditions: GPI assay; cited from earlier work
[3] = test system: food intake; conditions: i.c.v., free feeding rats; maximal response at 1 nmol dose; cited from earlier work

In the case of `CC(C)C[C@H](NC(=O)[C@@H](N)CO)C(=O)N[C@@H](C)C(=O)N[C@@H](C)C(=O)N1CCC[C@H]1C(=O)N[C@@H](CCC(N)=O)C(=O)N[C@@H](CCCNC(=N)N)C(=O)N[C@@H](Cc1ccccc1)C(N)=O` [NPSF] (H-SLAAPQRF-NH2), the EC50 [1] is reported as over 10 µM.
In the case of `CC[C@H](C)[C@H](NC(=O)[C@H](CCCNC(=N)N)NC(=O)[C@H](CCCNC(=N)N)NC(=O)[C@H](CC(C)C)NC(=O)[C@H](Cc1ccccc1)NC(=O)CNC(=O)CNC(=O)[C@@H](N)Cc1ccc(O)cc1)C(=O)N[C@@H](CCCNC(=N)N)C(=O)N1CCC[C@H]1C(=O)N[C@@H](CCCCN)C(=O)N[C@@H](CC(C)C)C(=O)N[C@@H](CCCCN)C(=O)N[C@@H](Cc1c[nH]c2ccccc12)C(=O)N[C@@H](CC(=O)O)C(=O)N[C@@H](CC(N)=O)C(=O)N[C@@H](CCC(N)=O)C(=O)O` [Dynorphin A], the “potency relative to [Leu]-enkephalin” value [2] is given as 700 times, the “potency relative to normorphine” value [2] is given as “about 200 times” and the “potency relative to β-endorphin” value [2] is given as 50 times. The EC50 [1] was 1.85 µM.
`NCCC[C@@H](NC(=O)[C@@H]1CCCN1C(=O)[C@@H]1CSSCCC(=O)N[C@@H](Cc2ccc(O)cc2)C(=O)N[C@@H](Cc2ccccc2)C(=O)N[C@@H](CCC(N)=O)C(=O)N[C@@H](CC(N)=O)C(=O)N1)C(=O)NCC(N)=O` [(Deamino-Cysl,D-Orn^8) Vasopressin] gave an EC50 [1] of over 10 µM.
In the case of γ-MSH, the “response of MRGX2 receptor” value [1] is reported as “responds”.
With `Cc1[nH]c2ccccc2c1C[C@@H](NC(=O)[C@@H](N)Cc1cnc[nH]1)C(=O)N[C@@H](C)C(=O)N[C@@H](Cc1c[nH]c2ccccc12)C(=O)N[C@H](Cc1ccccc1)C(=O)N[C@@H](CCCCN)C(N)=O` [Hexarelin] (H-H[dTrp(2-Me)]AW[dF]K-NH2) the EC50 [1] was 9.5 µM.
For `CC(=O)N[C@H]1CSSC[C@@H](C(=O)N2CCC[C@H]2C(=O)N2CCC[C@H]2C(=O)N[C@@H](CCCCN)C(=O)N[C@@H](CC(=O)O)C(N)=O)NC(=O)CNC(=O)[C@H](Cc2c[nH]c3ccccc23)NC(=O)[C@H](CCCNC(=N)N)NC(=O)[C@@H](Cc2ccc3ccccc3c2)NC(=O)[C@H](Cc2c[nH]cn2)NC(=O)[C@H](CCC(=O)O)NC1=O` [HS014] (Ac-CEH[d2Nal]RWGCPPKD-NH2; disulfide 1-8; N-terminus and C-terminus assumed), the EC50 [1] was over 10 µM.
`CC(C)C[C@H](NC(=O)CNC(=O)[C@H](CCC(=O)O)NC(=O)CNC(=O)[C@H](C)N)C(=O)N[C@@H](CC(N)=O)C(=O)N[C@@H](CO)C(=O)N[C@@H](CCC(N)=O)C(=O)N[C@@H](Cc1ccccc1)C(=O)N[C@@H](Cc1c[nH]c2ccccc12)C(=O)N[C@@H](CO)C(=O)N[C@@H](CC(C)C)C(=O)N[C@@H](C)C(=O)N[C@@H](C)C(=O)N1CCC[C@H]1C(=O)N[C@@H](CCC(N)=O)C(=O)N[C@@H](CCCNC(=N)N)C(=O)N[C@@H](Cc1ccccc1)C(N)=O` [NPAF] (H-AGEGLNSQFWSLAAPQRF-NH2; N-terminus assumed) gave an EC50 [1] of over 10 µM.
For `CCCC[C@@H]1NC(=O)[C@@H](NC(C)=O)CSSC[C@@H](C(N)=O)NC(=O)CNC(=O)[C@H](Cc2c[nH]c3ccccc23)NC(=O)[C@H](CCCNC(=N)N)NC(=O)[C@@H](Cc2ccc3ccccc3c2)NC(=O)[C@H](Cc2c[nH]cn2)NC(=O)[C@H](CCCNC(=N)N)NC1=O` [HS024, (Acetyl-Cys^3,Nle^4,Arg^5,D-2-Nal^7,Cys^11)-α-MSH (3-11) amide] (Ac-C[Nle]RH[d2Nal]RWGC-NH2; disulfide 1-9 (inferred)), the “effect on food intake” value [3] is given as “dose dependant increase in food intake”.
For α-MSH, the “response of MRGX2 receptor” value [1] was “responds”.
Work on `C[C@@H](O)[C@@H]1NC(=O)[C@H](CCCCN)NC(=O)[C@@H](Cc2c[nH]c3ccccc23)NC(=O)[C@H](Cc2ccccc2)NC(=O)[C@@H](NC(=O)[C@H](N)Cc2ccccc2)CSSC[C@@H](C(=O)N[C@H](CO)[C@@H](C)O)NC1=O` [Octreotide] yielded an EC50 [1] of over 10 µM.
`CC(C)C[C@H](NC(=O)[C@H](CCCCN)NC(=O)[C@H](CCCN=C(N)N)NC(=O)[C@H](C)NC(=O)[C@H](CO)NC(=O)[C@H](CCCCN)NC(=O)[C@H](CCCN=C(N)N)NC(=O)[C@H](C)NC(=O)CNC(=O)[C@@H](NC(=O)[C@H](Cc1ccccc1)NC(=O)CNC(=O)CNC(=O)[C@@H](N)Cc1ccccc1)[C@@H](C)O)C(=O)N[C@@H](C)C(=O)N[C@@H](CC(N)=O)C(=O)N[C@@H](CCC(N)=O)C(=O)O` [Nociceptin] gave an EC50 [1] of over 10 µM.
